{"source": "patent US20210115268A1", "about": "“FUNCTIONALIZED QUATERNARY AMMONIUM HALIDES AND USE THEREOF” (Agency for Science, Technology and Research, priority 2015, published 2021)", "origin": "cited, not measured here", "conditions": "glass, cotton, polyester fibers or polyurethane foams treated with the silane; after repeated washings", "data": [{"compound": "CCCCCCCCCCCCCCCCCC[N+](C)(C)CCC[Si](OC)(OC)OC.[Cl-]", "note": "[DC 5700, (MeO)3Si(CH2)3N^+Me2C18H37Cl]", "values": [{"measurement": "algicidal and bactericidal properties, leaching", "result": "showed algicidal and bactericidal properties that are maintained after repeated washings and no apparent leaching was observed"}]}]}
